Data published in patent US20090069430A1, “DIBENZENE DERIVATIVES AS CALCIUM CHANNEL BLOCKERS” (NEUROPHARMA, S.A., priority 2005, published 2009).

Test system: VDCC
Assay: VDCC inhibition: calcium entry (Fluo-4 fluorescence) after depolarization with 60 mM KCl in SH-SY5Y neuroblastoma cells
Type: cell-based, human
Method: This assay is aimed to determine the VDCC blocker activity of compounds; it is performed using SH-SY5Y neuroblastoma cells. SH-SY5Y cells were plated at 5×10^4 cells per well into Black/Clear Bottom 96-well culture plate, 48 hours before treatment. Cells were loaded with Fluo-4, 5 μM and pluronic acid, 0.1%, for 30 min at 37° C., 5% CO2, following a incubation of 15 min at RT in Krebs-HEPES solution. Immediately cells are exposed to the samples for 10 min at different concentrations, depending on potency. After the treatment, calcium entry is measured as fluorescence in a Fluostar Optima plate reader (BMG) in response to depolarization with 60 mM KCl. The excitation wavelength was 485 nm, and that of emission 520 nm.

[1] = compound at 10^−5, 10 min exposure
[2] = compound at 10^−6, 10 min exposure
[3] = compound at 10^−7, 10 min exposure
[4] = compound at 10^−8, 10 min exposure

| SMILES | % of calcium entry inhibition [1] | % of calcium entry inhibition [2] | % of calcium entry inhibition [3] | % of calcium entry inhibition [4] |
| --- | --- | --- | --- | --- |
| COCOc1cc(OC)ccc1C(=O)NCCCCCNC(=O)c1ccc(OC)cc1OCOC [Compound 1] | 57.8 ± 16% | – | – | – |
| COCOc1cc(OC)ccc1C(=O)NCCCOc1ccc(CCNC(=O)c2ccc(OC)cc2OCOC)cc1 [Compound 2] | 93.3 ± 5% | 34.2 ± 1.5% | 29.7 ± 14% | 31.2 ± 9% |
| COCOc1cc(OC)ccc1C(=O)NCCCOc1c(Br)cc(CCNC(=O)c2ccc(OC)cc2OCOC)cc1Br [Compound 4] | – | – | 6 ± 0% | – |
| COc1cc(O)c(C(=O)NCCCCCNC(=O)c2cc(Br)c(OC)cc2O)cc1Br [Compound 5] | – | 0% | – | – |
| COc1cc(O)c(C(=O)NCCCCCNC(=O)c2cc(Br)c(OC)c(Br)c2O)cc1Br [Compound 6] | 96.6 ± 4% | 48.7 ± 18% | 27.5 ± 5% | 11.8 ± 16% |
| COc1c(Br)cc(C(=O)NCCCCCNC(=O)c2cc(Br)c(OC)c(Br)c2O)c(O)c1Br [Compound 7] | 90.7 ± 3% | 3.1 ± 0% | – | – |
| CCOC(=O)COc1cc(OC)ccc1C(=O)NCCCOc1ccc(CCNC(=O)c2ccc(OC)cc2OCC(=O)OCC)cc1 [Compound 8] | 57 ± 7% | 0% | – | – |
| CCCOc1cc(OC)ccc1C(=O)NCCCOc1ccc(CCNC(=O)c2ccc(OC)cc2OCCC)cc1 [Compound 9] | 86 ± 0.5% | 61 ± 0% | 0% | – |
| COCCOc1cc(OC)ccc1C(=O)NCCCOc1ccc(CCNC(=O)c2ccc(OC)cc2OCCOC)cc1 [Compound 10] | 79 ± 0.1% | 22 ± 19% | 0% | – |
| COc1ccc(C(=O)NCCCOc2ccc(CCNC(=O)c3ccc(OC)cc3OCC(C)=O)cc2)c(OCC(C)=O)c1 [Compound 11] | 36 ± 3% | 0% | – | – |
| COc1ccc(C(=O)NCCCCCNC(=O)c2ccc(OC)c(C)c2OC)c(OC)c1C [Compound 12] | 78 ± 2.5% | 0% | – | – |
| COc1cc(OC)c(C(=O)NCCCCCNC(=O)c2ccc(OC)c(C)c2OC)cc1OC [Compound 13] | 27 ± 2% | 0% | – | – |
| COc1ccc(C(=O)NCCCCCCNC(=O)c2ccc(OC)cc2OC)c(OC)c1 [Compound 14] | 38 ± 6% | 0% | – | – |
| COc1ccc(C(=O)NCCCOc2ccc(CCNC(=O)c3ccc(OC)cc3OC)cc2)c(OC)c1 [Compound 15] | 91.5 ± 1.5% | 37 ± 5% | 0% | – |
| COc1ccc(C(=O)NCCCOc2ccc(CCNC(=O)c3ccc(OC)cc3OCC(C)C)cc2)c(OCC(C)C)c1 [Compound 16] | 39 ± 4% | 0% | – | – |
| COc1ccc(C(=O)NCCCOc2ccc(CCNC(=O)c3ccc(OC)cc3OCC=C(C)C)cc2)c(OCC=C(C)C)c1 [Compound 17] | 45 ± 12% | 39 ± 8% | 0% | – |
| CCCCOc1cc(OC)ccc1C(=O)NCCCOc1ccc(CCNC(=O)c2ccc(OC)cc2OCCCC)cc1 [Compound 18] | 37 ± 2% | 0% | – | – |
| CCC(C)Oc1cc(OC)ccc1C(=O)NCCCOc1ccc(CCNC(=O)c2ccc(OC)cc2OC(C)CC)cc1 (stereo not shown) [Compound 19] | 75 ± 12% | 69 ± 1% | 0% | – |
| CCC(C)Oc1cc(OC)ccc1C(=O)NCCCCCCNC(=O)c1ccc(OC)cc1OC(C)CC (stereo not shown) [Compound 20] | 91 ± 3% | 59 ± 19% | 0% | – |
| CCCCCOc1cc(OC)ccc1C(=O)NCCCCCCNC(=O)c1ccc(OC)cc1OCCCCC [Compound 21] | 27 ± 7% | 0% | – | – |
| CCCCOc1cc(OC)ccc1C(=O)NCCCCCCNC(=O)c1ccc(OC)cc1OCCCC [Compound 22] | 24 ± 12% | 0% | – | – |
